Key:
Assay type in all cases: cell-based, Human
[1] = tested on: U2OS cells; assay: Proliferation assay; conditions: 2 h treatment in DMEM pH 6.0 or 7.4, MTS at 48 h
[2] = tested on: M4A4 cells; assay: Proliferation assay; conditions: 2 h treatment in DMEM pH 6.0 or 7.4, MTS at 48 h
[3] = tested on: MDA-MB-231 cells; assay: Proliferation assay; conditions: 2 h treatment in DMEM pH 6.0 or 7.4, MTS at 48 h
[4] = tested on: HeLa cells

Row | Compound | inhibition of cell proliferation / toxicity [1] | inhibition of cell proliferation / toxicity ([1]; listed as Amanitin) | inhibition of cell proliferation / toxicity [2] | inhibition of cell proliferation / toxicity ([2]; listed as Amanitin) | inhibition of cell proliferation / toxicity [3] | inhibition of cell proliferation / toxicity ([3]; listed as Amanitin) | plasma membrane staining with AnnexinV-FITC [4]
1 | CC[C@H](C)[C@@H]1NC(=O)CNC(=O)[C@@H]2Cc3c([nH]c4cc(O)ccc34)[S@+]([O-])C[C@H](NC(=O)CNC1=O)C(=O)N[C@@H](CC(N)=O)C(=O)N1C[C@H](O)C[C@H]1C(=O)N[C@@H]([C@@H](C)[C@@H](O)CO)C(=O)N2 [amanitin, α-Amanitin] | no toxicity was observed | no effect on proliferation | no toxicity was observed | no effect on proliferation | no toxicity was observed | no effect on proliferation | 
2 | CN[C@@H]1C[C@H]2O[C@@](C)([C@@H]1OC)n1c3ccccc3c3c4c(c5c6ccccc6n2c5c31)C(=O)NC4 [staurosporine] |  |  |  |  |  |  | stained with AnnexinV-FITC
